# Test results from patent publication EP0060954A1, “Derivatives of fluorophenacyl amines and their therapeutic use” (LABORATOIRE L. LAFON Société anonyme dite:, priority 1981, dated 1982).
# “And” between values parts separate entries of the source, which are not always exact repeats. Equal values may be shown once.
# Assays:
# rat = test: Interaction with apomorphine, rat; type: in vivo; conditions: i.p. 30 min before apomorphine 0,5 mg/kg s.c.
# Procedure: (§1) Le CRL 40827, en solution dans de l'eau distillée, a été administré par voie intrapéritonéale sous un volume de 20 ml/kg chez la souris mâle et un volume de 5 ml/kg chez le rat mâle. 1°) - Toxicité
# Le CRL 40 827 est administré à des lots de 6 rats 30 min avant l'injection sous-cutanée de 0,5 mg/kg d'apomorphine.
# (§2) En procédant selon les modalités opératoires données ci-dessus pour le CRL 40827, on observe ce qui suit.
# souris [1] = test: Spontaneous motility (actimeter); type: in vivo; conditions: mouse; high dose 64 mg/kg
# Procedure: Une demi-heure après avoir reçu le CRL 40827, les souris (6 par dose, 12 témoins) sont placées en actimètre où leur motilité est enregistrée pendant 30 min.
# as §2
# souris mâles = test: Intergroup aggressiveness test (number of fights after removal of the partition); type: in vivo; conditions: mouse; dose not given
# Excerpt: Des essais comparatifs ont été entrepris pour mettre en évidence quels sont les effets chez l'animal qui permettent de distinguer les produits selon l'invention de leurs homologues fluorés connus. Parmi ces essais, on a résumé ceux concernant les propriétés antiagressives. Plus précisément, on a évalué la diminution de l'agressivité intergroupes selon la technique suivante : a.près avoir séjourné pendant 3 semaines de part et d'autre d'une cloison opaque séparant leur cage par le milieu, des groupes de trois souris mâles de 20 g chacune environ reçoivent, par voie intrapéritonéale, les produits à tester en solution dans de l'eau distillée, les animaux témoins ne recevant que de l'eau distillée par voie intrapéritonéale. Une demi-heure plus tard, les deux groupes d'une même cage sont réunis par retrait de la cloison opaque et on note le nombre de combats qui surviennent en 10 min. On a utilisé trois cages pour chaque produit à tester et six cages pour le lot témoin ne recevant pas les produits à tester.
# Les résultats du tableau I ci-après donnent la diminution de l'agressivité intergroupes par rapport au lot témoin, tous les produits à tester étant administrés à la dose de 8 mg/kg par voie intrapéritonéale. […]
# souris [2] = test: Asphyxic anoxia (gallamine triethiodide); type: in vivo; conditions: mouse
# Procedure: Des lots de 10 souris reçoivent le CRL 40827 30 min avant l'administration intrapéritonéale d: 34 mg/kg de triiodoéthy- late de gallamine. A la plus forte dose (34 mg/kg),le CRL 40827 empêche l'apparition des convulsions et de la mort chez 40% des animaux.
# as §2
# souris [3] = test: Interaction with apomorphine, mouse; type: in vivo
# Procedure: as §1
# Des lots de 6 souris reçoivent le CRL 40827 30 min avant l'injection sous-cutanée d'apomorphine à la dose de 1 ou 16 mg/kg.
# as §2
# souris [4] = test: Interaction with reserpine (hypothermia, ptosis); type: in vivo; conditions: mouse
# Procedure: Quatre heures après l'injection intrapéritonéale de 2,5 mg/kg de réserpine, des lots de 6 souris reçoivent le CRL 40827.
# as §2
# souris [5] = test: Interaction with oxotremorine; type: in vivo; conditions: mouse
# Procedure: Le CRL 40827 est administré à des lots de 6 souris 30 min avant l'injection intrapéritonéale de 0,5 mg/kg d'oxotrémo- rine. On observe que, dès la dose de 0,5 mg/kg, le CRL 40827 antagonise l'action hypothermisante de l'oxotrémorine; cet effet est très net à 32 mg/kg.
# as §2
# rats = test: Interaction with amphetamine (stereotypies); type: in vivo, rat; conditions: 8 and 32 mg/kg
# Procedure: L'amphétamine (2 mg/kg) est injectée par voie intrapéritonéale à des lots de 6 rats, 30 min après l'administration de CRL 40827. […] Interaction avec la réserpine
# as §2
# souris [6] = test: Motility reduced by hypoxic aggression (acute hypobaric anoxia); type: in vivo; conditions: mouse
# Procedure: Une demi-heure après avoir reçu le CRL 40827, les souris (10 par dose, 20 témoins) sont soumises à une anoxie hypobare aiguë (dépression de 8 x 10^4 Pa en 90 s, détente de 45 s), puis elles sont placées en actimètre où leur motilité est enregistrée pendant 10 min.
# as §2
# souris [7] = test: Four-plate test, traction and electroshock; type: in vivo; conditions: mouse, 30 min after dosing
# Procedure: Le test est pratiqué sur des lots de 10 souris, 30 min après l'administration de CRL 40827.
# as §2
# souris [8] = test: Toxicity: maximal non-lethal dose DL-0, intraperitoneal; type: in vivo; conditions: mouse, i.p.
# Procedure: La dose maximale non mortelle, DL-0, est supérieure à 128 mg/kg et inférieure à 256 mg/kg, chez la souris, par voie I.P. 2°) - Action sur le SNC
# as §1
# La dose maximale non mortelle, DL-0, est supérieure à 64 mg/kg et inférieure à 128 mg/kg chez la souris mâle.
# Le CRL 40854, en solution dans de l'eau distillée, a été administré par voie intrapéritonéale sous un volume de 20 ml/kg chez la souris màle et de 5 ml/kg chez le rat màle.
# La dose maximale non mortelle DL-0 est supérieure à 128 mg/kg et inférieure à 256 mg/kg chez la souris.
# souris [9] = test: Motility reduced by habituation to the enclosure; type: in vivo; conditions: mouse
# Procedure: Après 18 h de séjour dans les actimètres, les souris (6 par dose, 12 témoins) reçoivent le CRL 40827. Elles sont aussitôt replacées dans leurs enceintes respectives et, 30 min plus tard, on enregistre leur motilité pendant 30 min.
# as §2
# chiens [10] = test: Cardiovascular action, intravenous perfusion in dogs; type: in vivo, chien; conditions: for minimal effective dose: Canis lupus familiaris, iv
# Procedure: Deux chiens reçoivent le CRL 40727 par voie intraveineuse, en perfusion de 6 min, aux doses successives de 0,1 mg/kg, 1 mg/kg, 2,5 mg/kg, 5 mg/kg, 10 mg/kg et 20 mg/kg. On messure leur pression artérielle, leur fréquence cardiaque, leur débit fémoral, leur température rectale.
# chiens [11] = test: Cardiovascular action, intraduodenal route in dogs; type: in vivo, chien
# Procedure: Trois chiens reçoivent le CRL 40727 par voie intraduodénale aux doses successives de 1 mg/kg, 2,5 mg/kg, 5 mg/kg et 10 mg/kg. On mesure les mêmes paramètres que ci-dessus. On observe ce qui suit.
# souris [12] = test: CNS action of CRL 40727: sedative-type effects in the mouse; type: in vivo
# homme = test: Clinical use as sedative and antidepressant agents; type: in vivo; conditions: for résultats en tant qu'agents antidépresseurs chez l'homme: tablets or capsules of 5 mg, 3 per day
# [13] = CNS action of CRL 40727: hypothermia and amphetamine stereotypies (species not given); conditions: in vivo
smiles,measurement,setting,value
"CC(C)(C)NCC(O)c1ccc(F)cc1 (stereo not shown) [CRL 40854, chlorhydratede 1-(4-fluorophényl)-2-tertiobutylamino-1-éthanol]",stéréotypies induites par l'apomorphine,rat,ne modifie pas
same,motilité spontanée,souris [1],diminue modérément
same,agressivité intergroupes / effet antiagressif,souris mâles,diminue l'agressivité intergroupes
same,apparition des convulsions et mort (anoxie par curarisation),souris [2],ne modifie pas
same,comportement de verticalisation et stéréotypies (apomorphine),souris [3],sans modifier
same,action hypothermisante de l'apomorphine,souris [3]; 16 and 64 mg/kg i.p.,s'oppose modérément
same,ptôsis réserpinique,souris [4],gans modifier
same,hypothermie réserpinique,"souris [4]; 4, 16 and 64 mg/kg",antagonise modérément
same,signes de stimulation cholinergique périphérique (oxotrémorine),souris [5],ne modifie pas
same,tremblements provoqués par l'oxotrémorine,souris [5],ne modifie pas
same,effet hypothermisant de l'oxotrémorine,souris [5]; doses printed 'le et 64 mg/kg',aggrave
same,durée des stéréotypies amphétaminiques,rats,potentialise
same,récupération motrice après anoxie hypobare,souris [6],n'entraîne pas d'amélioration
same,effets convulsivants de l'électrochoc,souris [7],ne modifie pas les effets convulsivants
same,incapacité motrice (traction),souris [7],ne provoque pas de déficit moteur majeur
same,nombre de passages punis (test des quatre plaques),souris [7],n'entraîne pas d'augmen- tion
same,"dose maximale non mortelle, DL-0",souris [8],> 128 mg/kg and < 256 mg/kg
same,activité motrice (souris habituée à son enceinte),souris [9],ne provoque pas de reprise nette
"COc1cc(OC)c(C(=O)CCCN2CCCC2)c(OC)c1 [LL 1656, chlorhydratede (2,4,6-triméthoxyphényl)-(3-pyrrolidino-propyl)-cétone, reference compound]",débit fémoral,"chiens [10]; one dog, 6 mg/kg I.V. after the CRL 40727 doses",n'augmente pas plus qu'avec la dose de 10 mg/kg de CRL 40727
same,vasodilatation,"chiens [11]; 6 mg/kg i.v., injected after CRL 40727",n'entraîne pas de vasodilatation supplémentaire
"CC(C)NCC(=O)c1ccc(F)cc1 [CRL 40727, chlorhydratede N-(4-fluorophénacyl)-isopropylamine]",effets de type sédatif: motilité et agressivité,souris [12],hypomotilité et diminution de l'agressivité
same,"effets de type sédatif: sédation, réactivité",souris [12],sédation et hyporéactivité
same,minimal effective dose,"chiens [10]; dog, i.v., successive doses 0,1 to 20 mg/kg, read-out: dose from which the débit fémoral increases",1 mg/kg
same,minimal effective dose,"chiens [10]; dog, i.v., read-out: dose from which the pression artérielle diastolique decreases",10 mg/kg
same,minimal effective dose,"chiens [10]; dog, i.v., read-out: dose from which the pression artérielle différentielle increases",5 mg/kg
same,minimal effective dose,"chiens [10]; dog, i.v., read-out: dose from which the pression artérielle moyenne decreases",20 mg/kg
same,fréquence cardiaque,"chiens [10]; dog, i.v.",n'est pas nettement modifiée
same,hypotension à l'isoprénaline,"chiens [10]; dog, i.v.",n'est pas modifiée
same,fréquence cardiaque (tachycardie à l'isoprénaline),"chiens [10]; dog, mean, after 10 mg/kg i.v., control 215",182 battements/min
same,pression artérielle,"chiens [10]; one dog, supplementary dose of 40 mg/kg I.V.",hypotension plus importante qu'à la dose précédente
same,comportement de verticalisation et stéréotypies (apomorphine),souris [3],ne modifie pas
same,action hypothermisante de la forte dose d'apomorphine,"souris [3]; 0,5, 2 and above all 8 and 32 mg/kg i.p., 30 min before apomorphine 16 mg/kg s.c.",s'oppose nettement
same,résultats cliniques dans le domaine psychotrope en tant qu'agents sédatifs et antidépresseurs,homme; clinic,bons résultats
same,résultats en tant qu'agents antidépresseurs chez l'homme,homme,excellents résultats
same,"effets de type sédatif: température, effets hypothermisants de l'apomorphine, l'oxotrémorine et la réserpine",[13],"hypothermie et potentialisation des effets hypothermisants de l'apomorphine, l'oxotrémorine et la réserpine"
same,stéréotypies amphétaminiques,[13],antagonisme modéré
same,minimal effective dose,"chiens [11]; Canis lupus familiaris, dog, intraduodenal, read-out: dose from which une action hypotensive appears",10 mg/kg
same,action hypotensive et vasodilatatrice,"chiens [11]; another dog, 5 mg/kg I.V. at the end of the intraduodenal test",Le même résultat
same,hypotension à l'isoprénaline,"chiens [11]; dog, intraduodenal",n'est pas modifiée
same,fréquence cardiaque (tachycardie à l'isoprénaline),"chiens [11]; dog, mean, after 10 mg/kg intraduodenal, control 220",165 battements/min
same,action hypotensive et vasodilatatrice,"chiens [11]; one dog, supplementary dose of 20 mg/kg I.D.","action hypotensive plus importante, sans effet vasodilatateur supplémentaire"
same,"dose maximale non mortelle, DL-0",souris [8],> 128 mg/kg and < 256 mg/kg
"CC(C)(C)NCC(O)c1ccccc1F (stereo not shown) [CRL 40827A, fumaratede 1-(2-fluorophényl)-2-tertiobutylamino-1-éthanol]",résultats en tant qu'agents antidépresseurs chez l'homme,homme,excellents résultats
